Results taken from patent US8546451B2 (priority 2005, dated 2013).

Assays:
[1] = target: CYP1A2 (Homo sapiens (Human), UniProt P05177); assay: CYP450 inhibition in vitro, CYP1A2; type: in vitro ADME; settings: at concentrations <30 μM
[2] = tested on: morphine dependent rat model; assay: Hot flashes in morphine dependent rat model (tail skin temperature); type: in vivo; settings: morphine withdrawal model
Method: FIG. 13 depicts effect of Compound IV on attenuation of hot flashes in morphine withdrawal model with 5 mg/kg, 10 mg/kg, 15 mg/kg and 30 mg/kg dosages. N=7 animals per group. 17β-E2 was used at 5 mg/kg in 100% DMSO. (See Example 14.)
In addition to the similarities to the human condition, this experimental animal model has a short turn around time which makes it a useful high throughput screening tool for identifying compounds that can alleviate vasomotor symptoms using the tail skin temperature (TST). TST probes TA-40 (Data Sciences International, MN) were taped to the base of the tails and baseline temperatures were obtained for 15 minutes. After 15 minutes the animals were treated with naloxone (1 mg/kg, SQ) to reverse the effects of the morphine. Tail skin temperature (TST) was measured for one hour post-naloxone treatment with a sampling frequency of 5 secs throughout the course of the experiment. Following the data acquisition, the moving average of the temperature recorded every 60 seconds for each animal was calculated and further analyzed. Baseline temperature was computed as the average temperature acquired over the 15 minutes preceding naloxone administration. The area under the curve (AUC) was calculated by subtracting all the values post-naloxone administration from the baseline using a linear trapezoid method.

[3] = tested on: CYP3A4/5; assay: CYP450 inhibition in vitro, CYP3A4/5; type: in vitro ADME; settings: at concentrations <30 μM
[4] = target: rat ER-β (Rattus norvegicus (Rat), UniProt Q62986); assay: ER-β transactivation assay (ERE-LUC) in HEK-293 cells; type: cell-based
Method: Transactivation assays in agonist and antagonist modes were performed to identify whether the compound is an agonist, antagonist or a partial.
Sequencing was performed to determine the absence of any mutations. HEK-293 cells were plated at 100,000 cells per well of a 24 well plate in Dulbecco's Minimal Essential Media (DMEM) +5% charcoal-stripped fetal bovine serum (csFBS). […] Luciferase assays were performed 48 hrs after transfection.

[5] = target: Human 17β-HSD5 (Homo sapiens (Human), UniProt P42330); assay: 17β-HSD5 enzyme activity assay; type: biochemical; settings: 14C androstenedione to testosterone, TLC (FIG. 3)
[6] = tested on: serum testosterone; assay: Recovery of testosterone levels following suppression in rats; type: in vivo, Sprague-Dawley rats
From the text: Thirty-five (35) male Sprague-Dawley rats weighing approximately 200 g were maintained on a 12-h light/dark cycle with food (2016 Teklad Global 16% Protein Rodent Diet, Harlan, Madison, Wis.) and water available ad libitum. The animal protocol was reviewed and approved by the Institutional Animal Care and Use Committee of the University of Tennessee.
The test article for this study was weighed and dissolved in PEG 300 (100%) (Acros Organics, NJ) to prepare the appropriate dose formulations. Animals were randomly assigned to one of the ten treatment groups (n =5 animals/group). The animals were housed in groups of 2 to 3 animals per cage. Group 1 was sacrificed at the initiation of the study (Day 1) for determination of baseline testosterone levels in intact animals. Groups 2-7 received daily doses of 1, 3, or 30 mg/kg via oral gavage (˜200 uL) for three days. Groups 2, 3, and 4 were sacrificed on Day 4 to measure maximal testosterone suppression. Groups 5, 6, and 7 were allowed to recover for 14 days with a drug free washout period.

[7] = Oral pharmacokinetics in dogs; type: in vivo
Method: Formulations using polyethylene glycol 300 (PEG300) generally produced higher exposures than microemulsions prepared in Tween 80 diluted in deionized water. […] Importantly, in dogs the exposure in the male 30 mg/kg PEG300 oral dose group exceeded the exposure necessary to produce the maximal effect on prostate reduction in the rat model of LH suppression.

[8] = tested on: human peripheral blood lymphocytes; assay: Chromosomal aberrations in human peripheral blood lymphocytes in vitro; type: cell-based; settings: concentrations up to 200 μM
[9] = target: androgen receptor (AR) (Rattus norvegicus (Rat), UniProt P15207); assay: DES versus Compound IV, AR crossreaction (FIG. 12B); type: cell-based
[10] = target: PPAR-γ (Homo sapiens (Human), UniProt P37231); assay: Cross-reactivity transcriptional activation assay, PPAR-γ; type: cell-based; settings: agonist and antagonist modes
From the text: Compound IV was screened for cross-reactivity against rat isoforms of glucocorticoid receptor (GR), mineralocorticoids receptor (MR), progesterone receptor (PR), androgen receptor (AR) and human isoforms of farnesoid X receptor (FXR), liver X receptor (LXR), peroxisome proliferator-activated receptors (PPAR-α and PPAR-γ), and retinoid X receptor (RXR-α) in both agonist and antagonist modes in transcriptional activation assays.

rat ER-β, sequence (Q62986 whole entry): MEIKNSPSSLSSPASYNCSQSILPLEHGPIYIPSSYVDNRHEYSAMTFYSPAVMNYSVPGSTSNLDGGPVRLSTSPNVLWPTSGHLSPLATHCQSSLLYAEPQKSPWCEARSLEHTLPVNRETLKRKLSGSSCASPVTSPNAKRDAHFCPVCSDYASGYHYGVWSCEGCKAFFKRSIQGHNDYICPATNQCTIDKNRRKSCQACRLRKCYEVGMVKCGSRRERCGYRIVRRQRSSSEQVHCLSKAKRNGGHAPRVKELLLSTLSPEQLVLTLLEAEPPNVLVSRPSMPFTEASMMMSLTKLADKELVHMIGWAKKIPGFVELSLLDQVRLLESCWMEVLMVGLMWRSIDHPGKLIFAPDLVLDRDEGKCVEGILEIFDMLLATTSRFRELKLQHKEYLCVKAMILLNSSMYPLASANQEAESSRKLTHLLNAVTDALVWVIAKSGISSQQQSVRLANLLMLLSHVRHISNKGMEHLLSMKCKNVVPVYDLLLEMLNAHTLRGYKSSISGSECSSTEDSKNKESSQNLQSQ
CYP1A2, sequence (P05177 whole entry): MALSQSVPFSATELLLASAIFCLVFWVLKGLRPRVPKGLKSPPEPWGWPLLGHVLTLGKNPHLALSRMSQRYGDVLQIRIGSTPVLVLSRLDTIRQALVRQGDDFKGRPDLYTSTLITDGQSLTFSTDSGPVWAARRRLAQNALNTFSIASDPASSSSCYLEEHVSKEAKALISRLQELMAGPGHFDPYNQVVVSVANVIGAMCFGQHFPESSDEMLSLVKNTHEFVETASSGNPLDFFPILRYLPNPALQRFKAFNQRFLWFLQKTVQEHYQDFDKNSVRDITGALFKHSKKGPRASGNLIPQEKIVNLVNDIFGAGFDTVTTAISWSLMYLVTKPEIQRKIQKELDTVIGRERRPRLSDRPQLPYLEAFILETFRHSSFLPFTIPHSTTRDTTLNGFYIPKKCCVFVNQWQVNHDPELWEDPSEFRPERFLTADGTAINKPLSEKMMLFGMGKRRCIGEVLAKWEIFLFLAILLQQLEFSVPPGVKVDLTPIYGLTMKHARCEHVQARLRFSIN
Human 17β-HSD5, sequence (P42330 whole entry): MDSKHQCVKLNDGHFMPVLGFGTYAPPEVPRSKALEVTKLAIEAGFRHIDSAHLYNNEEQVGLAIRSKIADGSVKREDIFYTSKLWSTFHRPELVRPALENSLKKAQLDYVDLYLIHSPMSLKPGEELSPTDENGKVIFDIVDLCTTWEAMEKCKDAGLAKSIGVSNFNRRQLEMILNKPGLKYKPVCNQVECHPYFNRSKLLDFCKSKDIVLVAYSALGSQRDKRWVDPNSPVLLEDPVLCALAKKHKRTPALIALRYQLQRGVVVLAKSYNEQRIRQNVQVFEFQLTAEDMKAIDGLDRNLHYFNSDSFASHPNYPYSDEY
androgen receptor (AR), sequence (P15207 whole entry S389L): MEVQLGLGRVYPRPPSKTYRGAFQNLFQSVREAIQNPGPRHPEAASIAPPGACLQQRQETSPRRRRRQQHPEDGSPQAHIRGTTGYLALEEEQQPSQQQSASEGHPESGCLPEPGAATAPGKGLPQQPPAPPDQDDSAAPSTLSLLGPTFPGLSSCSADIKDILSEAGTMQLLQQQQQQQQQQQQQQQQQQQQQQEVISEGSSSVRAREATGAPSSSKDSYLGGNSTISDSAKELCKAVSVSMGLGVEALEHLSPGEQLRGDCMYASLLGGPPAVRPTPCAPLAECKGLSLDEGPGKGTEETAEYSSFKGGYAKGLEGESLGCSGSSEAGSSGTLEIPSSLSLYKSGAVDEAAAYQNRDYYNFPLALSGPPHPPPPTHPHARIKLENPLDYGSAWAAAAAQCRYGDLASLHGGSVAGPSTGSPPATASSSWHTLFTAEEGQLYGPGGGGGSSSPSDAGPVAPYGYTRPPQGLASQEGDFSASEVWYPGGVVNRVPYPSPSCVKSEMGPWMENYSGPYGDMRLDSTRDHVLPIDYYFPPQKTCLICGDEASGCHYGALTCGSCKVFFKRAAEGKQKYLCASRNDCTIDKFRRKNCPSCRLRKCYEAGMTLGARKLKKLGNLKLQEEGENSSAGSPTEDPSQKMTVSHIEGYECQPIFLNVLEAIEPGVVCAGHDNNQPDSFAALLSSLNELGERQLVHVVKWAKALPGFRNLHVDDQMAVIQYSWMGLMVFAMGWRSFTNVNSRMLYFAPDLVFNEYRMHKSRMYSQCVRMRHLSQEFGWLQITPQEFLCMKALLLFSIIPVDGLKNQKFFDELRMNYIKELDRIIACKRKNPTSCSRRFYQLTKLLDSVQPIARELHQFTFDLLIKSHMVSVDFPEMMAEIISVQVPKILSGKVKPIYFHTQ
PPAR-γ, sequence (P37231 whole entry, canonical isoform): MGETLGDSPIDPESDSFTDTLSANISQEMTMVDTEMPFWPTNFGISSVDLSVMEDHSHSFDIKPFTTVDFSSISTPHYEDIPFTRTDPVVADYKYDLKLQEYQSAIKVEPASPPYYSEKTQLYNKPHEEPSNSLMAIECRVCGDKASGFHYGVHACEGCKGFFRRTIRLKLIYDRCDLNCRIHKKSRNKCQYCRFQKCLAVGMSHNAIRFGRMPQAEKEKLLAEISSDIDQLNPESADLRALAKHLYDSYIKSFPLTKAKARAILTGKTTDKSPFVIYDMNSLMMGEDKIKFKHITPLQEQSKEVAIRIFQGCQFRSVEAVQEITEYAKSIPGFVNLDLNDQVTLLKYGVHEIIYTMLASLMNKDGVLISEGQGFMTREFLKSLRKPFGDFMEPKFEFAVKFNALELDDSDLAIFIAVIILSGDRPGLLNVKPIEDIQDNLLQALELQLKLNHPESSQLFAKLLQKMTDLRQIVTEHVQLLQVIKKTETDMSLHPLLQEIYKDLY

## O=C(c1ccc(O)c(F)c1)N(c1ccc(O)cc1)c1ccc(F)cc1 [Compound IV, 3-fluoro-N-(4-fluorophenyl)-4-hydroxy-N-(4-hydroxyphenyl)benzamide]
[1]
  inhibition of CYP1A2: does not inhibit
[2]
  dose with the best results: 10 mg
[2]; 5, 10, 15 and 30 mg/kg (FIG. 13)
  effect on hot flushes: attenuated hot flushes
[3]
  inhibition of CYP3A4/5: does not inhibit
[4]
  ERβ activity in transient transfection assays: agonist
[4]; estradiol 1 nM, concentrations up to 10 μM
  antagonist effects on estradiol-stimulated transcriptional activation: no antagonist effects were observed
[5]
  effect on 17β-HSD5 enzyme activity: partial inhibitory effect
[6]; 1 mg/kg oral for three days, after 14 day recovery
  serum testosterone levels: 3.3 ± 1.92 ng/mL
[6]; 1 mg/kg oral for three days, no recovery
  serum testosterone suppression: No significant suppression
[6]; 3 mg/kg oral for three days, after 14 day recovery
  serum testosterone levels: 3.00 ± 1.06 ng/mL
[6]; 3 mg/kg oral for three days, no recovery, baseline 6.4±3.1
  serum testosterone levels: 1.47 ± 0.26 ng/mL
[6]; 30 mg/kg oral for three days, after 14 day recovery
  serum testosterone levels: 3.8 ± 1.72 ng/mL
[6]; 30 mg/kg oral for three days, no recovery, baseline 6.4±3.1
  serum testosterone levels: 1.62 ± 0.49 ng/mL
[6]; rats, within 14 days of recovery
  reversibility of pharmacologic castration: reversible
[7]
  absorption following oral dosing: rapidly absorbed
[7]; second peak in the terminal phase of plasma concentration-time profiles
  enterohepatic recirculation: undergoes enterohepatic recirculation
[8]
  structural or numeric chromosomal aberrations: did not induce structural or numeric chromosomal aberrations
[9]
  crossreaction with AR: did not
[10]
  agonist or antagonist activity: did not display any agonist or antagonist activity
